Measured values published in patent US20220348590A1, “CYCLOOXYGENASE-2 INHIBITORS AND USES THEREOF” (The Board Institute, Inc., priority 2019, published 2022).
Values after ≈ are worked out from the molar mass of the structure shown. Where two headings read alike, the source gives them in different places.

Assays:
[1] = target: T1, human recombinant COX2 (hCOX2) (UniProt P35354); test: LCMS-based COX2 enzymatic inhibition assay (PGE2 quantification); assay type: biochemical; set-up: COX2 2 minutes pge2/pge2d4 area ratio Avg; other: 2 minutes; readout pge2/pge2d4 area ratio; average; COX2 2 minutes pge2/pge2d4 area ratio Avg; LLE; average LLE; COX2 2 minutes pge2 area (counts) Avg; readout pge2 area (counts); other: 2 min; "ovine COX2 (oCOX2), human recombinant COX2 (hCOX2)"; details: for COX2 2 minutes pge2/pge2d4 area ratio Avg. LLE / COX2 2 minutes pge2 area (counts) Avg. LLE / COX2 10 minutes pge2 area (counts) Avg. LLE / COX2 30 minutes pge2 area (counts) Avg. LLE: average LLE; for IC50: average
T1 sequence (P35354 1-604): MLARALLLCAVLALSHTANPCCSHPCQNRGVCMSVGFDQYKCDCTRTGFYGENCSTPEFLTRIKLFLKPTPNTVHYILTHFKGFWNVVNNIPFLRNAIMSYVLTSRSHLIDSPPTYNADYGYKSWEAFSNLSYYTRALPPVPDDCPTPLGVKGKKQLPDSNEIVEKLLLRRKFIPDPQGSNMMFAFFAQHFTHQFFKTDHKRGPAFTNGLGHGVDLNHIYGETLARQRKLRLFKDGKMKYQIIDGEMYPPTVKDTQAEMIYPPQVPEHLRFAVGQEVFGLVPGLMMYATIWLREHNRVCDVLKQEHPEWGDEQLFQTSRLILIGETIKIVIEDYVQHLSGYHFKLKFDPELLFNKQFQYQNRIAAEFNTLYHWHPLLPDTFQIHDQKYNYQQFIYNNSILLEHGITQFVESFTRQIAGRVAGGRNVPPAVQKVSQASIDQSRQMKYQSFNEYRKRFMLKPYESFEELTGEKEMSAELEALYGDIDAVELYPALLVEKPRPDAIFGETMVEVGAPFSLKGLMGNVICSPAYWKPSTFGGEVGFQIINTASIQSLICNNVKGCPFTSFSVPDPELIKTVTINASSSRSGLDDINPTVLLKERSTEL
Outline: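 Ovine COX-1 (0.1 μg) or human recombinant COX2 (0.2 μg) in 100 mM Tris.HCl pH 8.0 with hematin and epinephrine, preincubated with inhibitor 10 min at 37 °C. Reaction with 5 μM arachidonic acid stopped after 2 min with HCl; PGE2 quantified by LC-MS-MS. IC50 from 12 concentrations in triplicate.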

[2] = Rat Microsome Stability; assay type: in vitro ADME; details: rat microsomes
[3] = Rat Plasma Protein Stability (% Remaining); assay type: in vitro ADME; details: average
[4] = mouse brain protein binding (BPB) assay; assay type: in vitro ADME
Method: (§1) We have adapted a previously reported cyclooxygenase enzymatic assay utilizing LCMS quantification of PGE2 as the product of COX-1 and COX2 catalyzed conversion of arachidonic acid to evaluate the binding properties of newly synthesized ligands [Cao, 2011]. These optimized and miniaturized (384-well plates) LCMS-based COX-1 and COX2 enzymatic assays enabled us to quickly evaluate newly synthesized ligands for COX2 binding affinity and selectivity vs COX-1. Using a shorter ligand-enzyme incubation time in the LCMS assay (2 minutes vs 10 minutes) also permitted us to prioritize ligands with faster binding kinetics. Considering the relatively slow on-rate kinetics of known coxibs, due to their 3-step binding mechanism [Marnett, 2009], we believe that optimizing this critical parameter will be key to the successful development of a COX2 PET tracer. Using these enzymatic assays, we have evaluated>200 newly synthesized ligands against COX2 and >20 ligands against COX-1. Another critical property necessary for a good PET radiotracer is to have low non-specific binding (NSB) to increase the free fraction and maximize the signal to noise ratio. This property can be evaluated using in-vitro protein binding assays, and we have now evaluated>50 newly synthesized ligands in mouse, rat and human plasma protein binding (PPB) assays as well as >15 ligands in a mouse brain protein binding (BPB) assay.

[5] = mouse plasma protein binding (PPB) assay; assay type: in vitro ADME; details: average, read-out: Mouse Plasma Protein Binding % Bound Avg (converted)
Method: as §1

[6] = PBS Solubility (no DMSO); assay type: physicochemical; details: aqueous buffer, thermodynamic from solid, average
[7] = tested on: MDR1; test: MDR1-MDCKII permeability and efflux; assay type: in vitro ADME; details: dog, MDCK-MDR1; for Papp A→B: read-out: MDR1-MCKII Papp A-B; for Papp B→A: read-out: MDR1-MCKII Papp B-A
[8] = 2 minutes, readout pge2/pge2d4 area ratio
[9] = 2 minutes, readout pge2/pge2d4 area ratio, read-out: COX2 2 minutes pge2/pge2d4 area ratio Avg. IC50
[10] = 2 minutes, readout pge2 area (counts)
[11] = 2 minutes, readout pge2 area (counts), read-out: COX2 2 minutes pge2 area (counts) Avg. IC50
[12] = 10 minutes, readout pge2 area (counts)
[13] = 10 minutes, readout pge2 area (counts), read-out: COX2 10 minutes pge2 area (counts) Avg. IC50
[14] = 30 minutes, readout pge2 area (counts)
[15] = 30 minutes, readout pge2 area (counts), read-out: COX2 30 minutes pge2 area (counts) Avg. IC50

COX2 2 minutes pge2/pge2d4 area ratio Avg. LLE [1, 8] | IC50 [1, 9] [nM] | COX2 2 minutes pge2 area (counts) Avg. LLE [1, 10] | IC50 [1, 11] [nM] | Rat Microsome Stability % Remaining Avg [2] [%] | Rat Plasma Protein Stability % Remaining Avg [3] [%] | fraction unbound [4] | fraction unbound [5] | solubility [6] [µM] | COX2 10 minutes pge2 area (counts) Avg. LLE [1, 12] | IC50 [1, 13] [nM] | efflux ratio [7] | Papp A→B [7] [×10⁻⁶ cm/s] | Papp B→A [7] [×10⁻⁶ cm/s] | COX2 30 minutes pge2 area (counts) Avg. LLE [1, 14] | IC50 [1, 15] [nM] | SMILES
4.232 | 17.2 | 4.214 | 17.4 | – | 94.1 | 0.011 | 0.079 | 37 (≈ 12 µg/mL) | – | – | – | – | – | – | – | CS(=O)(=O)c1ccc(-c2cccc(/C=C\c3ccoc3)n2)cc1 [Compound 35, 2-[(Z)-2-(furan-3-yl)ethenyl]-6-(4-methanesulfonylphenyl)pyr]
– | 11.7 | – | 10.3 | 6.9 | 105.1 | – | 0.016 | 2.1 (≈ 0.723 µg/mL) | – | – | – | – | – | – | – | CS(=O)(=O)c1ccc(-c2cccc(NCc3cccs3)n2)cc1 [Compound 24]
– | 17.5 | – | 18.2 | 11.6 | 102.8 | 0.019 | 0.118 | 27 (≈ 8.87 µg/mL) | – | – | 1 | 68.5 | 67.9 | – | – | CS(=O)(=O)c1ccc(-c2cccc(NCc3ccco3)n2)cc1 [Compound 36]
4.261 | 22.8 | 4.341 | 20 | – | – | – | 0.031 | – | 4.996 | 5 | – | – | – | 5.9869 | 0.416 | COc1cc(NCc2cccs2)nc(-c2ccc(S(C)(=O)=O)cc2)c1 [Compound 50]
4.826 | 16.4 | 4.752 | 18.3 | – | 115 | – | – | 12 (≈ 4.16 µg/mL) | – | – | – | – | – | – | – | CS(=O)(=O)c1ccc(-c2cc(F)cc(NCc3ccoc3)n2)cc1 [Compound 34]
5.067 | 76 | 5.168 | 61.6 | 20.3 | – | 0.02 | – | – | 6.195 | 5.57 | 1.7 | 49.7 | 83.8 | 6.4321 | 2.74 | CS(=O)(=O)c1ccc(-c2cncc(NCc3cccs3)n2)cc1 [Compound 98]
4.757 | 16.4 | 4.796 | 15.1 | – | 128 | – | – | 0.64 (≈ 0.222 µg/mL) | – | – | – | – | – | – | – | CS(=O)(=O)c1ccc(-c2ccc(F)c(NCc3ccoc3)n2)cc1 [Compound 33]

The remaining lines, values behind:

SMILES | COX2 2 minutes pge2/pge2d4 area ratio Avg. LLE [1, 8] | IC50 [1, 9] [nM] | COX2 2 minutes pge2 area (counts) Avg. LLE [1, 10] | IC50 [1, 11] [nM] | Rat Microsome Stability % Remaining Avg [2] [%] | Rat Plasma Protein Stability % Remaining Avg [3] [%] | fraction unbound [4] | fraction unbound [5] | solubility [6] [µM] | COX2 10 minutes pge2 area (counts) Avg. LLE [1, 12] | IC50 [1, 13] [nM] | efflux ratio [7] | Papp A→B [7] [×10⁻⁶ cm/s] | Papp B→A [7] [×10⁻⁶ cm/s] | COX2 30 minutes pge2 area (counts) Avg. LLE [1, 14] | IC50 [1, 15] [nM]
COc1ccc(NCc2cccs2)nc1-c1ccc(S(C)(=O)=O)cc1 [Compound 17] | 4.653 | 9.62 | 4.644 | 9.92 | 0.2 | 100 | 0.012 | 0.033 | 1.3 (≈ 0.487 µg/mL) | – | – | – | – | – | – | –
CS(=O)(=O)c1ccc(-c2cncc(OCc3cccs3)n2)cc1 [Compound 19] | 5.643 | 10.2 | 5.681 | 9.01 | – | 91.1 | – | 0.02 | 5.8 (≈ 2.01 µg/mL) | 6.3861 | 1.5 | – | – | – | – | –
CS(=O)(=O)c1ccc(-c2cc(F)cc(NCc3ccco3)n2)cc1 [Compound 14] | 5.172 | 8.81 | 5.203 | 9.37 | – | 104 | – | 0.022 | 6.1 (≈ 2.11 µg/mL) | – | – | – | – | – | – | –
Cc1occc1CNc1cccc(-c2ccc(S(C)(=O)=O)cc2)n1 [Compound 21] | 4.818 | 10.9 | 4.716 | 13.9 | – | 100 | – | – | 18 (≈ 6.16 µg/mL) | – | – | – | – | – | – | –
CS(=O)(=O)c1ccc(-c2ccc(F)c(NCc3ccco3)n2)cc1 [Compound 15] | 5.1257 | 8.91 | 5.098 | 9.62 | – | 127 | – | – | 4.5 (≈ 1.56 µg/mL) | – | – | – | – | – | – | –
CS(=O)(=O)c1ccc(-c2nc(NCc3cccs3)cc3ccoc23)cc1 [Compound 2] | 3.981 | 5.13 | 3.975 | 5.45 | – | 98 | – | 0.004 | 0.31 (≈ 0.119 µg/mL) | – | – | – | – | – | – | –
CS(=O)(=O)c1ccc(-c2cccc(OCc3cccs3)n2)cc1 [Compound 1, 2-(4-methanesulfonylphenyl)-6-[(thiophen-2-yl)methoxy]pyridine] | 4.864 | 3.27 | 4.806 | 3.66 | – | 100 | – | 0.004 | 1.1 (≈ 0.38 µg/mL) | – | – | 0.9 | 33.7 | 29.9 | – | –
CS(=O)(=O)c1ccc(-c2cccc(NCc3ccc(F)o3)n2)cc1 [Compound 23] | 4.592 | 11.4 | 4.619 | 10.7 | – | 104 | – | – | 24 (≈ 8.31 µg/mL) | – | – | – | – | – | – | –
COc1ncc(NCc2ccoc2)nc1-c1ccc(S(C)(=O)=O)cc1 [Compound 44] | 5.722 | 19.6 | 5.725 | 20.1 | 5.3 | 104.6 | – | 0.045 | 28 (≈ 10.1 µg/mL) | – | – | 1.2 | 39.6 | 47.2 | – | –
COc1ncc(NCc2cccs2)nc1-c1ccc(S(C)(=O)=O)cc1 [Compound 29] | 5.399 | 14.9 | 5.474 | 14.5 | 2.2 | 114.5 | – | 0.025 | 2.8 (≈ 1.05 µg/mL) | – | – | – | – | – | – | –
CS(=O)(=O)c1ccc(-c2cccc(OCc3ccoc3)n2)cc1 [Compound 16] | 4.9079 | 9.12 | 4.932 | 8.71 | – | 97.9 | – | 0.011 | 10 (≈ 3.29 µg/mL) | – | – | – | – | – | – | –
